Read-outs that look alike come from different tables or passages of the source.

In one assay the test system is p100/p52. Conditions: cited from earlier work.
In another assay the test system is cell-associated HIV RNA. Conditions: primary cells / resting CD4+ T cells; cited from earlier work.
Assay [1] deals with Jurkat HIV-luciferase clones. The note with it: HIV latency reversal studies; cited from earlier work.
For the next assay, the target named is cIAP1-BIR2 (Homo sapiens (Human), UniProt Q13490). Put plainly: BIR binding assay (FRET competition), cIAP1 BIR2. Put shortly:
(§1)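 His-tagged domains (50 nM cIAP1-BIR3, 325 nM cIAP2-BIR2, 325 nM cIAP1-BIR2, 100 nM XIAP-BIR3) compete with compounds for a 200 nM AlexaFluor647-labelled SMAC/DIABLO peptide in HEPES buffer, pH 7.4, for 60 min. Then 2 nM Eu-W1024 is added for 30 min. The 615/665 nm ratio is fit by four-parameter fit to give IC50.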

The target of another assay is cIAP2-BIR3 (Homo sapiens (Human), UniProt Q13489). Put plainly: BIR binding assay (FRET competition), cIAP2 BIR3. Conditions: for cIAP2 BIR3 vs BIR2 separation window: fold separation (FS) for cIAP2.
Assay [2] relates to Jurkat HIV-luciferase clones. Put plainly: Jurkat latency reversal assay. Format: cell-based. The note with it: Homo sapiens, 48 h; Jurkat latency reversal assay potency; read-out: Jurkat pEC50 (converted). Put shortly:
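A 1:1:1 mix of three Jurkat clones (C16, 115, N6) carrying integrated luciferase-expressing HIV proviruses, 5,000 cells/well, was exposed to 3-fold, 14-point compound titrations from 10 μM at 0.5% DMSO for 48 h at 37° C. Steady-Glo luminescence was fitted by four-parameter logistic regression to give EC50 and maximal percent activation relative to vehicle.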

A further assay has as its target cIAP1-BIR3 (Homo sapiens (Human), UniProt Q13490). Briefly: BIR binding assay (FRET competition), cIAP1 BIR3. Conditions: for cIAP1 BIR3 vs BIR2 separation window: fold separation (FS) for cIAP1. Put shortly:
as §1

The target of the next assay is cIAP2-BIR2 (Homo sapiens (Human), UniProt Q13489). Briefly: BIR binding assay (FRET competition), cIAP2 BIR2. An outline of the steps: as §1
A further assay addresses XIAP-BIR2 (Homo sapiens (Human), UniProt P98170). Briefly: BIR binding assay (FRET competition), XIAP BIR2. The note with it: read-out: XIAP BIR2 (pIC50) (converted). Put shortly:
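Compounds in a 15-point, 3-fold series competed with an AlexaFluor647 SMAC peptide (AVPIAQKSE, 200 nM) for 200 nM His-tagged XIAP-BIR2 over 60 min in pH 7.4 HEPES/CHAPS/DTT buffer. Eu-W1024 (2 nM) was then added for 30 min. IC50 and pIC50 were derived from the 615 nm/665 nm emission ratio by variable-slope fit.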

For the next assay, the target named is XIAP-BIR3 (Homo sapiens (Human), UniProt P98170). Briefly: BIR binding assay (FRET competition), XIAP BIR3. Conditions: for XIAP BIR3 vs BIR2 separation window: fold separation (FS) for XIAP. Put shortly:
as §1

Chain of cIAP1-BIR3 (Q13490 253-363): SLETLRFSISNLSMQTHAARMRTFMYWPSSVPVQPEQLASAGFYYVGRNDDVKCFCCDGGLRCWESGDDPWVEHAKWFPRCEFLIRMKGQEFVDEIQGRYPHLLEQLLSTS
Chain of XIAP-BIR3 (P98170 241-356): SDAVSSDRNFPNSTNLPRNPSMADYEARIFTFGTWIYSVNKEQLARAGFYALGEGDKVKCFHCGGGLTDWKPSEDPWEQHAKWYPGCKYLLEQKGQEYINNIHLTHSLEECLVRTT
Chain of cIAP2-BIR3 (Q13489 238-349): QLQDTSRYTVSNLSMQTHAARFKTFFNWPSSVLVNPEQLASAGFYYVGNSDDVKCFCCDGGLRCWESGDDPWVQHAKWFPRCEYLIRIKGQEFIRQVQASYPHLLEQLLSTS
Chain of cIAP2-BIR2 (Q13489 158-242): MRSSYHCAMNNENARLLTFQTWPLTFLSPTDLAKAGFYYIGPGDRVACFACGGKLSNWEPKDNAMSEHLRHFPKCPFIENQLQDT
Chain of cIAP1-BIR2 (Q13490 173-257): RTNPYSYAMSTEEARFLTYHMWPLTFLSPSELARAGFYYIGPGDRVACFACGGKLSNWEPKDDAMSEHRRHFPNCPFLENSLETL
Chain of XIAP-BIR2 (P98170 124-240): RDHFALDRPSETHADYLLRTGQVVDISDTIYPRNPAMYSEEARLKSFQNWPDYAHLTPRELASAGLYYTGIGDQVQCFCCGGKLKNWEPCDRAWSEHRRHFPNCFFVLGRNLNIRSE

`CC[C@H](NC(=O)[C@H](C)NC)C(=O)N1C[C@@H](O)C[C@H]1Cc1c(-c2[nH]c3cc(F)ccc3c2C[C@@H]2C[C@H](O)CN2C(=O)[C@H](CC)NC(=O)[C@H](C)NC)[nH]c2cc(F)ccc12` [Birinapant TL32711, Birinapant]: the p100-p52 conversion result with p100/p52 is “not potent”. Also, the “HIV caRNA induction” value with cell-associated HIV RNA was “not potent”. The “potency in Jurkat” value in assay [1] was “not potent”.

With `CN[C@@H](C)C(=O)N[C@H](C(=O)N1CCC[C@H]1C(=O)N[C@H]1c2ccccc2C[C@H]1OCC#CC#CCO[C@@H]1Cc2ccccc2[C@@H]1NC(=O)[C@@H]1CCCN1C(=O)[C@@H](NC(=O)[C@H](C)NC)C1CCCCC1)C1CCCCC1` [AZD5582], the “HIV caRNA induction” value with cell-associated HIV RNA is “increase in cell-associated HIV RNA expression”.

Turning to `C[C@@H]1CN(CC(=O)N2CC(C)(C)c3[nH]c(=O)c(Cc4ccc(F)cc4)cc32)[C@@H](CN2CCO[C@@H](COCCCCOC[C@H]3CN(C[C@H]4CN[C@H](C)CN4CC(=O)N4CC(C)(C)c5[nH]c(=O)c(Cc6ccc(F)cc6)cc54)CCO3)C2)CN1` [Example 113, 1,1′-(2,2′-((3R,3′R,6R,6′R)-(((2R,2′R)-((butane-1,4-diylbis(oxy))bis(methylene))bis(morpholine-2,4-diyl))bis(methylene))bis(3-methylpiperazine-6,1-diyl))bis(acetyl))bis(6-(4-fluorobenzyl)-3,3-dimethyl-1,2,3,4-tetrahydro-5H-pyrrolo[3,2-b]pyridin-5-one)], the IC50 was 3160 to 10000 nM at cIAP1-BIR2; 7.94 to 15.8 nM on cIAP2-BIR3; 7.94 to 15.8 nM on cIAP1-BIR3; 3160 to 10000 nM at cIAP2-BIR2; 10000 to 51300 nM at XIAP-BIR2 (FRET competition binding); 15.8 to 31.6 nM at XIAP-BIR3. For the same compound, the “cIAP2 BIR3 vs BIR2 separation window” value at cIAP2-BIR3 is “+++ (10,000>FS>1,000)”. In addition, the EC50 in assay [2] is 0.49 to 12.6 nM. At cIAP1-BIR3, the “cIAP1 BIR3 vs BIR2 separation window” value is “+++ (10,000>FS>1,000)”. Moreover, the “XIAP BIR3 vs BIR2 separation window” value on XIAP-BIR3 is “++++ (FS>10,000)”.

`C[C@@H]1CN(CC(=O)N2CC(C)(C)c3[nH]c(=O)c(Cc4ccc(C(F)F)cc4)cc32)[C@@H](CN2CCO[C@H](C(=O)NCc3ccc(CNC(=O)[C@@H]4CN(C[C@H]5CN[C@H](C)CN5CC(=O)N5CC(C)(C)c6[nH]c(=O)c(Cc7ccc(C(F)F)cc7)cc65)CCO4)cc3)C2)CN1` [Compound 166, (2S,2′S)-N,N′-(1,4-phenylenebis(methylene)) bis(4-(((2R,5R)-1-(2-(6-(4-(difluoromethyl)benzyl)-3,3-dimethyl-5-oxo-2,3,4,5-tetrahydro-1H-pyrrolo[3,2-b]pyridin-1-yl)-2-oxoethyl)-5-methylpiperazin-2-yl)methyl)morpholine-2-carboxamide)]: the IC50 on cIAP1-BIR2 is 22.4 to 1000 nM; on cIAP2-BIR3, 1.38 to 7.94 nM; on cIAP1-BIR3, 7.94 to 15.8 nM; at cIAP2-BIR2, 22.4 to 1000 nM; at XIAP-BIR2 (FRET competition), 10000 to 51300 nM; at XIAP-BIR3, 15.8 to 31.6 nM. Further, the “cIAP2 BIR3 vs BIR2 separation window” value at cIAP2-BIR3 was “+++ (10,000>FS>1,000)”. Moreover, the EC50 in assay [2] was 316 to 3310 nM. For the same compound, the “cIAP1 BIR3 vs BIR2 separation window” value at cIAP1-BIR3 was “++ (1,000>FS>100)”. The “XIAP BIR3 vs BIR2 separation window” value at XIAP-BIR3 is on record as “++++ (FS>10,000)”.
